Assay results reported in ChEMBL document CHEMBL1201862, “PubChem BioAssay data set” (2004).
The source made the active and inactive calls.

Assays:
[1] = target: T1, Polyadenylate-binding protein 1 (Homo sapiens, UniProt P11940); assay: PABP1 MLLE–PAM2 binding inhibitor potency, dose response, biochemical, fluorescence polarization, FITC-PAM2 peptide (AID 602259); format: functional; details: read-out: IC50_Mean
[2] = target: T1, Polyadenylate-binding protein 1; assay: PABP1 MLLE–PAM2 interaction inhibitors, dose response, miRNA deadenylation inhibitor project, biochemical, fluorescence polarization, Cy5-PAM2 peptide, secondary (AID 602260); format: functional; details: read-out: IC50_Mean
[3] = target: T2, Endoribonuclease toxin MazF (Escherichia coli K-12, UniProt P0AE70); assay: fluorescent RNA oligo signal without MazF, dose response, counter-screen for MazEF activator project, biochemical, fluorescence, single-stranded RNase substrate (AID 588502); format: functional
T2 sequence (P0AE70 whole entry): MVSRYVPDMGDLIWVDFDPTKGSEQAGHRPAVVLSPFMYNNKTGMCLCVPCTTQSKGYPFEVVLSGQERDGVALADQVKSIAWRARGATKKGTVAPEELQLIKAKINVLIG

[4] = target: T2, Endoribonuclease toxin MazF; assay: MazF toxin RNase activators, dose response, biochemical, fluorescence, single-stranded RNA substrate, uHTS hits (AID 588481); format: functional
DNA topoisomerase = target: T3, DNA topoisomerase (Yersinia pestis, UniProt A0A2S9PM60); assay: Y. pestis Topo-I inhibitors, cleavage product readout, dose response, biochemical, cherry-pick (AID 588525)
T3 sequence (A0A2S9PM60 whole entry): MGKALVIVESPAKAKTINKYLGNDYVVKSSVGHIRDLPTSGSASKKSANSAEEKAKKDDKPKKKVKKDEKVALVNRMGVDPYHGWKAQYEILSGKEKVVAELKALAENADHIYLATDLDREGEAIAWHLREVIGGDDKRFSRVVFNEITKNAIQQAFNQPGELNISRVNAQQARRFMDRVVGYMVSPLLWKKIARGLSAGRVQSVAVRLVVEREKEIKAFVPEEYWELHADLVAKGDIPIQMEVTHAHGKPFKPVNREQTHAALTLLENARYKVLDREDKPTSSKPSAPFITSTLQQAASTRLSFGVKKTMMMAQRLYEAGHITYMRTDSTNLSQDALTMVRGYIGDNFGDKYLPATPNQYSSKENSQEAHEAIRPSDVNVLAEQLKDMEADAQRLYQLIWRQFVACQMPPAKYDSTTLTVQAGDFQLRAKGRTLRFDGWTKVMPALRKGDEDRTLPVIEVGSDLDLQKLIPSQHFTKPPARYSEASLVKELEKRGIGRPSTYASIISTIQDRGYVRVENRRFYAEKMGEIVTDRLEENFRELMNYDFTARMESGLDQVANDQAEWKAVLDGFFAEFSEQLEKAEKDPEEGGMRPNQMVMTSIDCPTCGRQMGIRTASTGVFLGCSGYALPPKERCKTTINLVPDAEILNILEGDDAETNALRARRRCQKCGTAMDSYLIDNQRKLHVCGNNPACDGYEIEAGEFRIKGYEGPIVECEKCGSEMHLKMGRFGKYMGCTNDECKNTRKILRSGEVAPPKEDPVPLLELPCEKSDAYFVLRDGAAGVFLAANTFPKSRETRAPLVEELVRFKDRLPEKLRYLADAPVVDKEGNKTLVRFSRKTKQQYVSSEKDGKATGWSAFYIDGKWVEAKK

[5] = target: Luciferin 4-monooxygenase (Photinus pyralis, UniProt P08659); assay: firefly luciferase enzyme inhibitors, dose response, biochemical, luminescence (AID 1891)
Sequence of Luciferin 4-monooxygenase (P08659 whole entry): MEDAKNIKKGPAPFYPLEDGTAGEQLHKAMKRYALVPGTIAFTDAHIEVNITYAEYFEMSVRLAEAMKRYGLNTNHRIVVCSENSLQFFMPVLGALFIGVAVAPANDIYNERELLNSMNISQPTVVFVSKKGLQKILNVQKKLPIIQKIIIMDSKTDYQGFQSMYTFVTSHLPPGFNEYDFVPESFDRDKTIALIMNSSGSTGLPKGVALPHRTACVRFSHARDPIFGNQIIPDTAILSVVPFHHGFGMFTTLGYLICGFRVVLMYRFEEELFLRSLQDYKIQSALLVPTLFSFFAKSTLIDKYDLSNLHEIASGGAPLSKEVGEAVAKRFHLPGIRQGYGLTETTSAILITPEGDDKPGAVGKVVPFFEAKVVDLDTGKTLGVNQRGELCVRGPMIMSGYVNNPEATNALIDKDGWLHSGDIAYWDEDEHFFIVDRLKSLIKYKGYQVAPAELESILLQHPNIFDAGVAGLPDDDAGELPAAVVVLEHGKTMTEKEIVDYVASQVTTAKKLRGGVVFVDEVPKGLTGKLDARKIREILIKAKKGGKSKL

[6] = target: T4, Sentrin-specific protease 7 (Homo sapiens, UniProt Q9BQF6); format: functional;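 further: Luminescence-based dose-response confirmation of ultra-high-throughput screening hits, measuring inhibition of SENP7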
T4 sequence (Q9BQF6 whole entry): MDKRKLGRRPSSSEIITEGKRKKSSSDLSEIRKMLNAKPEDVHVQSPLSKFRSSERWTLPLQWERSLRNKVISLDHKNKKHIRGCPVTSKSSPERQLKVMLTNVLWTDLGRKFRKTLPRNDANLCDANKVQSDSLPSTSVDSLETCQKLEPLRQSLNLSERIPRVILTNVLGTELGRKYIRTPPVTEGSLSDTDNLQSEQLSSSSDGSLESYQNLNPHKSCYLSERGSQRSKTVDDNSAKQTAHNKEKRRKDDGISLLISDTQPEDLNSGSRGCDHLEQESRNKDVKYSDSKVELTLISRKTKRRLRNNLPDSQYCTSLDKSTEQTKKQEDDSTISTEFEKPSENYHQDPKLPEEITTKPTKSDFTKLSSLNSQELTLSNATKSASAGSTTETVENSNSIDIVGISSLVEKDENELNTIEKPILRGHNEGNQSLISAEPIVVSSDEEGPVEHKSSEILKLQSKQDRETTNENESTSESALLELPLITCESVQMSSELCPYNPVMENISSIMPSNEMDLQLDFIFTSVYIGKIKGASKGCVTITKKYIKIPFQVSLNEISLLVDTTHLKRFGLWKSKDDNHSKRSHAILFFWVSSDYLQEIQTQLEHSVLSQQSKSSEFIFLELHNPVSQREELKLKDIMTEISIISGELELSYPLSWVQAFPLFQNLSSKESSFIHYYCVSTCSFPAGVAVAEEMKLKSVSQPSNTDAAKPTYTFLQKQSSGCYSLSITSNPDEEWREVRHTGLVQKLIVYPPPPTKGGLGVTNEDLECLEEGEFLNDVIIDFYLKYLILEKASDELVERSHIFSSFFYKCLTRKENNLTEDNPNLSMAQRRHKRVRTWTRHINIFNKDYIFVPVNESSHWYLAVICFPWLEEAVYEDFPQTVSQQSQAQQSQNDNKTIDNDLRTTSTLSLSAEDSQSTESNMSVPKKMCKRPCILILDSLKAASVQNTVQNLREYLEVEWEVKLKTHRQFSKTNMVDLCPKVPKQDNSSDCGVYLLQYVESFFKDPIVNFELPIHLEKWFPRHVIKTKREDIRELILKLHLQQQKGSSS

Caspase-3 = target: T5, Caspase-3 (Homo sapiens, UniProt P42574); format: functional;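 further: Dose-response selectivity test against caspase-3 for candidate inhibitors of sentrin-specific proteases (SENPs)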
T5 sequence (P42574 whole entry): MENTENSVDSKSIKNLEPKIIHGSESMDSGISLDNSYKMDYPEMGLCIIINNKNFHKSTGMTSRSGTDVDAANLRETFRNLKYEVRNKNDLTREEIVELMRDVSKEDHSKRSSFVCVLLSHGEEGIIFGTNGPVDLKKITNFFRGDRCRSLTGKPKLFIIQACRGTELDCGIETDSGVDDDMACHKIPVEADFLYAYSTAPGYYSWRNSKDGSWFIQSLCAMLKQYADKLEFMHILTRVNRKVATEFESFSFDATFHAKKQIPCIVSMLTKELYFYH

[7] = target: T6, Sentrin-specific protease 8 (Homo sapiens, UniProt Q96LD8); format: functional;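 further: luminescence read-out of SENP8 inhibition, dose-response confirmation following an ultra-high-throughput screen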
T6 sequence (Q96LD8 whole entry): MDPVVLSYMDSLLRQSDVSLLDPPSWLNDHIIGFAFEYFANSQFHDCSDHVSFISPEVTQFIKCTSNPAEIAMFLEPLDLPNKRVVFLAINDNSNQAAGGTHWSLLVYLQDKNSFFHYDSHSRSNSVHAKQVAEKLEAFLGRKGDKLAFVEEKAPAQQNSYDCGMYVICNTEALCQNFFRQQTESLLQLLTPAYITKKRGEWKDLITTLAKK

[8] = target: T7, Sentrin-specific protease 6 (Homo sapiens, UniProt Q9GZR1); format: functional;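 further: Luminescence-based dose-response confirmatory assay of SENP6 inhibition, following up an ultra-high-throughput screen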
T7 sequence (Q9GZR1 whole entry): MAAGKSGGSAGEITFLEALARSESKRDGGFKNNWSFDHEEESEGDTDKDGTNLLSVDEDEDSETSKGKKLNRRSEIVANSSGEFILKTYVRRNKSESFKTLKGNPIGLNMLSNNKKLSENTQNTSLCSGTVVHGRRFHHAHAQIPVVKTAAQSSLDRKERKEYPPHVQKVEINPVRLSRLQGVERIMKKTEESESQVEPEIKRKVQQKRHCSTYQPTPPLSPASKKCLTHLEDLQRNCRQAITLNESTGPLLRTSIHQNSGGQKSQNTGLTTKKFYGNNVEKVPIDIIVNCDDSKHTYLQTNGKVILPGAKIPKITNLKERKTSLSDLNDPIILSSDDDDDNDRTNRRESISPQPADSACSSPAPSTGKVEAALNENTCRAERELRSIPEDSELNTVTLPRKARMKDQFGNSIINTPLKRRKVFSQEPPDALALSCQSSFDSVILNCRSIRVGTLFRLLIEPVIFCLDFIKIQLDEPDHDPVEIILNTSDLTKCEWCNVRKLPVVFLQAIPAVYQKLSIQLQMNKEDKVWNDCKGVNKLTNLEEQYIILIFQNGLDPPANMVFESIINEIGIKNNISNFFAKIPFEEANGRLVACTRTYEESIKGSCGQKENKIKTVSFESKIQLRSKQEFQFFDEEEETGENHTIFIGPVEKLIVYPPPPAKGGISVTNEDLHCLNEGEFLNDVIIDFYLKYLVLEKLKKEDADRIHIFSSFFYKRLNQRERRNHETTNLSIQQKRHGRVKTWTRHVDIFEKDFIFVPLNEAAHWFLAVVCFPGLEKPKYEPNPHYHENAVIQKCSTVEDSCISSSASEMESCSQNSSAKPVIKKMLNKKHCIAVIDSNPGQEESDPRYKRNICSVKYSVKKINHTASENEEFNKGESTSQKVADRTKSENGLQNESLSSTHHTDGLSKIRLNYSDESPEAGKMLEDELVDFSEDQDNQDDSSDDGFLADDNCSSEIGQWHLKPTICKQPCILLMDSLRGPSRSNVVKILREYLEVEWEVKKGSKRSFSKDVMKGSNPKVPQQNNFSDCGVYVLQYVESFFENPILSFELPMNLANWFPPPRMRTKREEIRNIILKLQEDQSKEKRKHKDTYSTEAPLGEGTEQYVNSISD

[9] = Luminescence Cell-Based Dose Confirmation HTS to Identify Inhibitors of Platelet Dense Granule Release. [Related pubchem assays: 1663 (Primary HTS), 1678 (Summary of Project)]; format: functional
Prothrombin = Prothrombin (Homo sapiens, UniProt P00734); assay: Thrombin 1536 HTS Dose Response Confirmation. [Related pubchem assays: 1046 (Thrombin 1536 HTS; hits were confirmed in this assay)]; format: functional
[10] = target: Heat shock protein HSP 90-alpha (Homo sapiens, UniProt P07900); format: functional, organism-based
[11] = target: T8, Type-1 angiotensin II receptor (Homo sapiens, UniProt P30556); assay: AT1 receptor antagonists, dose response, selectivity assay for APJ receptor antagonist project, cell-based, uHTS hits (AID 463214); format: functional;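 further: antagonist potency against angiotensin II stimulated AT1 response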
T8 sequence (P30556 whole entry): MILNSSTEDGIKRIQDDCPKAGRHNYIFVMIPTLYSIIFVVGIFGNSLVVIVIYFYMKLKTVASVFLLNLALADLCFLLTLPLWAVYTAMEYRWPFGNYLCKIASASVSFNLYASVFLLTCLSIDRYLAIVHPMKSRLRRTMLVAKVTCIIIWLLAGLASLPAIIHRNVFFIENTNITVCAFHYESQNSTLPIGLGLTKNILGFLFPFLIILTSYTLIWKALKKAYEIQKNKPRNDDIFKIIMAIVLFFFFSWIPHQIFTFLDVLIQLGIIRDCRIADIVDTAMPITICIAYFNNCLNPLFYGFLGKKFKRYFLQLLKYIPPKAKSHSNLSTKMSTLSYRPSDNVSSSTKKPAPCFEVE

Beta-galactosidase = Beta-galactosidase (Escherichia coli, UniProt Q8VNN2); assay: PubChem AID 485352; format: functional
Sequence of Beta-galactosidase (Q8VNN2 whole entry): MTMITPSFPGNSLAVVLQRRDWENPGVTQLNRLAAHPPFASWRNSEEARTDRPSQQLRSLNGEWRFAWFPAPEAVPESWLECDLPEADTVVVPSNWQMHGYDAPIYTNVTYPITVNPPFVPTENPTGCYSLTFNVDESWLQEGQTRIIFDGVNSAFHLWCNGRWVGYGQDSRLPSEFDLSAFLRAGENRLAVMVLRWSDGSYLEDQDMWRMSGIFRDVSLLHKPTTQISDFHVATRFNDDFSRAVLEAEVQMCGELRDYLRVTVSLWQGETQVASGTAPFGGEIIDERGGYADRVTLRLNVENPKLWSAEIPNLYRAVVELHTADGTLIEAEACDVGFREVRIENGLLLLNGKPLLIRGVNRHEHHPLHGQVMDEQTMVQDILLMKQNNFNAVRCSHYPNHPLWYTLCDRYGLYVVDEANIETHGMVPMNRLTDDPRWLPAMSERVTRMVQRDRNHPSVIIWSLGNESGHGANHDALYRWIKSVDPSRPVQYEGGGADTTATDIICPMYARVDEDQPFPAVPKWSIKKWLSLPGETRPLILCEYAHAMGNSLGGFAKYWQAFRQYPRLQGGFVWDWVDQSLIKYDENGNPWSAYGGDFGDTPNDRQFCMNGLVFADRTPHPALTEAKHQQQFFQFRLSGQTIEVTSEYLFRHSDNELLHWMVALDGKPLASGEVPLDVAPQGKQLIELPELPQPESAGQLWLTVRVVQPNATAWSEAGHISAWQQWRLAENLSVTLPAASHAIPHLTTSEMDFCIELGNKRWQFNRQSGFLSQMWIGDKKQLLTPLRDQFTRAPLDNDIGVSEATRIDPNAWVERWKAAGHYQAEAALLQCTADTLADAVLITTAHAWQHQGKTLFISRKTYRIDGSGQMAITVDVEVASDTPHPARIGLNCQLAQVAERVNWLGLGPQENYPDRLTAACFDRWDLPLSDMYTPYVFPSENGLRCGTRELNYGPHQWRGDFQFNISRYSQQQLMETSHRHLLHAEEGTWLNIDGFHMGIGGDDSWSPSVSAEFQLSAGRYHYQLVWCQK

Phospholipase A2 = Phospholipase A2 (Homo sapiens, UniProt P04054); format: functional;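 further: confirmatory dose-response counterscreen on phospholipase A2, testing hits that came from an ultra-high-throughput screen for ATG4B inhibitors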
Sequence of Phospholipase A2 (P04054 whole entry): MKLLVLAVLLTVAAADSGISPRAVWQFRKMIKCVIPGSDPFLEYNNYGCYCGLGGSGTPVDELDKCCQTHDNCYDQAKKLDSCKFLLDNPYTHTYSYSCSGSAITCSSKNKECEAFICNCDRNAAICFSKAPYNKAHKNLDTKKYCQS

Cysteine protease ATG4B = target: T9, Cysteine protease ATG4B (Homo sapiens, UniProt Q9Y4P1); format: functional;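 further: Fluorescence-based dose-response confirmation assay measuring inhibition of ATG4B activity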
T9 sequence (Q9Y4P1 whole entry): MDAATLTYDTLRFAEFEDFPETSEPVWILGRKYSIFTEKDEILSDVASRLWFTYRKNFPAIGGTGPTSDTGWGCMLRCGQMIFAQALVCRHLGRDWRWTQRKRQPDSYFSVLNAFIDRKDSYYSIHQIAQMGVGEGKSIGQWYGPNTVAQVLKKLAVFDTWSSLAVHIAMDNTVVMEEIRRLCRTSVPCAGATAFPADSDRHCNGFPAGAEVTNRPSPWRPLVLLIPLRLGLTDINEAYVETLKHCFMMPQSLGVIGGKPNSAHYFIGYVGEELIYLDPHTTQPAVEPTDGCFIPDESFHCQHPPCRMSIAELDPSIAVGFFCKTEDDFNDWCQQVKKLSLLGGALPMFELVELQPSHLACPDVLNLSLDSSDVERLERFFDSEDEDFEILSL

Cytochrome P450 2C9 = Cytochrome P450 2C9 (Homo sapiens, UniProt P11712)
Sequence of Cytochrome P450 2C9 (P11712 whole entry): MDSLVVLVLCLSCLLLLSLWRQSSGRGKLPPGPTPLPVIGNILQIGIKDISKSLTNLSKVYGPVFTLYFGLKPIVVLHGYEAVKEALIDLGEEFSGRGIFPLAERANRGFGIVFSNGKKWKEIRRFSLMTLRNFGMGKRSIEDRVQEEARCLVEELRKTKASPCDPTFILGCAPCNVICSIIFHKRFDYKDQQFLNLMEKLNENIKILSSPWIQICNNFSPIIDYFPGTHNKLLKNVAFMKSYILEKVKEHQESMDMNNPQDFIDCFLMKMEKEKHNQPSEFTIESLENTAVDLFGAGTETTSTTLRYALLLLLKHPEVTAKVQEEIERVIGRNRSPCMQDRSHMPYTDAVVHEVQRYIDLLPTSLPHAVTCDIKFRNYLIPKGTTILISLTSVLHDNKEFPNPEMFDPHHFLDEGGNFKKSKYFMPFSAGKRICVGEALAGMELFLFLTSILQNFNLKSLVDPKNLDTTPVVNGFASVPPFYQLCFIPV

T1 sequence (P11940 whole entry): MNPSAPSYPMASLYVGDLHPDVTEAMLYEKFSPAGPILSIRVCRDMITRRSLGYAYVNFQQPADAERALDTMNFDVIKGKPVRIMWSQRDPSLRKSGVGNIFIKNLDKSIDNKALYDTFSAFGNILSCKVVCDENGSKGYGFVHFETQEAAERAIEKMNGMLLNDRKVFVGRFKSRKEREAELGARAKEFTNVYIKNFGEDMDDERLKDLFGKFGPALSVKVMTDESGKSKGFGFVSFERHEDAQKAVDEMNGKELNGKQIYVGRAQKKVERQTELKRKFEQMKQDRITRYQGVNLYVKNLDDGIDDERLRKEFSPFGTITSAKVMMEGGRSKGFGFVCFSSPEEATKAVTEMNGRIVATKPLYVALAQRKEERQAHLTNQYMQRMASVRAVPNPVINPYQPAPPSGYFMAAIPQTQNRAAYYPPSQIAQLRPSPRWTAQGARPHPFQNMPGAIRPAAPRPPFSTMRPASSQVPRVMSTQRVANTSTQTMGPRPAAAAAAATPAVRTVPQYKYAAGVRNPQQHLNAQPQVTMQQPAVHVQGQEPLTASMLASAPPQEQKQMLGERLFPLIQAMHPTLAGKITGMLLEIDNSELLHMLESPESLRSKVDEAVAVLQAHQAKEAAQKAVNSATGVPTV

SMILES	EC50 [3]	EC50 [4]	AC50 (DNA topoisomerase)	IC50 (Phospholipase A2)	IC50 (Cysteine protease ATG4B)	further results
CCOC(=O)[C@H]1[C@H]2COc3ccc(Br)cc3[C@H]2N2C(=O)CN(Cc3ccc(C)cc3)C(=O)[C@@]12C	> 99 µM (inactive)	4.72 µM (active)				IC50 [1]: 49.1 µM (inactive); IC50 [2]: > 66 µM (inactive)
CCCCCn1c(SCCC(C)C)nc2c1c(=O)[nH]c(=O)n2C			> 38 µM (inactive)			
COc1ccccc1/N=C/c1c(O)oc2ccccc2c1=O						EC50 [5]: 1.3 µM (active); IC50 [6]: 2.87 µM (active); IC50 (Caspase-3): > 100 µM (inactive); IC50 [7]: > 100 µM (inactive); IC50 [8]: > 100 µM (inactive); EC50 [9]: > 112 µM (not active)
Oc1ccc(Cl)cc1/C=C/c1ccc2cccc(O)c2n1	> 99 µM (inactive)	44.8 µM (inactive)				IC50 (Prothrombin): > 50 µM (not active); AC50 [10]: 3.87 µM (active)
Cc1ccccc1NCC(=O)c1ccc(Br)cc1			1.96 µM (active)			IC50 [11]: 8.62 µM (active); EC50 (Beta-galactosidase): > 40 µM (inactive)
C=CCn1c(SCc2cc(C(C)=O)ccc2OCC)nc2ccccc2c1=O				1.3 µM (active)	5.1 µM (active)	
O=C(NCc1cccc(C(F)(F)F)c1)c1cc(Cl)cc(Cl)c1				2.38 µM (active)	41 µM (inactive)	AC50 (Cytochrome P450 2C9): inconclusive
COc1cc2c(cc1OC)C1=NC(=O)CN1C(SCc1ccc(C)cc1)=N2			13.8 µM (active)			
COc1ccc(C(=O)n2nc(-c3ccco3)nc2SC)cc1OC	45.8 µM (inactive)	> 99 µM (inactive)				IC50 (Prothrombin): 0.204 µM (active)
O=C(NCc1cccc(C(F)(F)F)c1)N1CCN(S(=O)(=O)c2ccccc2F)CC1				7.61 µM (active)	12.5 µM (active)	
